According to patent US10202579B2, “Methods for producing mammalian pluripotent stem cell-derived endodermal cells” (Takara Bio Europe AB, priority 2012, dated 2019):

Tested on: hPSC lines P11032, SA181 and P11012
Experiment: DE differentiation of 3 hPSC lines with 5-aza-2-deoxycytidine or 5-azacytidine, qRT-PCR marker expression (Example 5)
Assay type: cell-based, human
Details: 1 μM on day 2-3
Method: Following the basic protocols A (hPSC lines P11032, and SA181) or B (hPSC line P11012), cells derived from 3 different hPSC lines were treated with either 10 nM 5-aza-2-deoxycytidine or 1 μM 5-azacytidine on day 2-3 during the hPS differentiation into definitive endodem.
For analysis of mRNA expression, hESC- and hiPSC-derived DE-cells were harvested on day 7 of the protocol and gene expression was analysed using qRT-PCR, normalised to the house-keeping gene CREBBP, and the results presented as relative quantification normalised to a calibrator.

`Nc1ncn([C@@H]2O[C@H](CO)[C@@H](O)[C@H]2O)c(=O)n1` [5-azacytidine] was tested. Which “mRNA expression of the DE marker Cxcr4” value (day 7) did it give?
The value was “No significant changes”.

What about the “mRNA expression of the DE marker Sox17” value (day 7) of the same compound?
Its value is “No significant changes”.

And the “Nanog mRNA” value (day 7, vs without treatment)?
The value was “significantly decreased”.

What about the “Oct4 mRNA” value (day 7, vs without treatment) of the same compound?
Its value is “significantly decreased”.

What about the “Homogeneity of derived DE population” value (lines give heterogeneous DE if untreated) of the same compound?
The value was “allowed derivation of a homogeneous DE population”.
